Experimental data: US20240383908A1, “SYNTHESIS AND APPLICATION OF PHOSPHATASE DEGRADER” (HINOVA PHARMACEUTICALS INC., priority 2021, published 2024)

molecular target: T1, SHP2 protein (Homo sapiens, UniProt Q06124); test: Degradation activity on SHP2 protein in MV-411 cells (Western blot, DC50); format: cell-based; parameters: endogenous in cells; settings: MV411 cells, 24 hours, read-out: Degradation activity for differenct cell lines MV411 (DC50)
T1 sequence (Q06124 1-593): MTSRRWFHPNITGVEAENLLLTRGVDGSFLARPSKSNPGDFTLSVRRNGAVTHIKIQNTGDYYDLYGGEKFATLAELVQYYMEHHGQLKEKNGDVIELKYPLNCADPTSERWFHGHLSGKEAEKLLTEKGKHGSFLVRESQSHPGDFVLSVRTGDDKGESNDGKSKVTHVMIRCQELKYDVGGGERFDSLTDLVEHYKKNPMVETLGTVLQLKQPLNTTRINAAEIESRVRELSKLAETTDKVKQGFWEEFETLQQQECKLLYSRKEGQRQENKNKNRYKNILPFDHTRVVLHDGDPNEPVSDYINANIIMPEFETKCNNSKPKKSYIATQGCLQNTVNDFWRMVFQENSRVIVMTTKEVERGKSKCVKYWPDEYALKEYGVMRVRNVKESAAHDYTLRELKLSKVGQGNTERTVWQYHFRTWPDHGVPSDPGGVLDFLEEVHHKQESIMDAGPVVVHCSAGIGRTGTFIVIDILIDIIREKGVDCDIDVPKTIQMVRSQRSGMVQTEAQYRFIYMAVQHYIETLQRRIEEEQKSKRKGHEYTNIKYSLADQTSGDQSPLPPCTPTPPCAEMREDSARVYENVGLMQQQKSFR
Description: • MV-411 cell line (COBIER, CBP-60522) • FBS (GEMINI, Cat. No. 900-108) • 0.01M PBS (Biosharp, Cat. No. 162262) • IMDM (Hyclone, Cat. No. SH30228.01) • Penicillin-Streptomycin (Gibco, Cat. No. 15140122) • DMSO (Sigma, Cat. No. D5879) • Centrifuge Tube, 15 ml (Excell Bio, Cat. No. CS015-0001) • Cell Culture Dish, (WHB, Cat. No. CS016-0128) • 12-well cell culture cluster (Corning, Cat. No. 3513) • RIPA lysate buffer (Thermo, Cat. No. 89900) • Protein Loding Buffer (Beyotime, Cat. No. P0015L) • BCA Protein Assay Kit (EpiZyme, Cat. No. ZJ102) • SDS-PAGE Fast Preparation Kit (EpiZyme, Cat. No. PG112) • Anti-GAPDH (14C10) Rabbit mAb (CST, Cat. No. 2118L) • Anti-SHP2 rabbit mAb (CST, Cat. No. 37525) • Peroxidase Affinipure (HRP) Goat Anti-Rabbit IgG (Zen Bioscience, Cat. No. 511203) • TBST (Biosharp, Cat. No. BL601A) • ECL chemiluminescence kit (4A Biotech, Cat. No. 4AW011-200)
• (1) Cell culture medium: IMIDM medium+10% FBS+1% Pen Strep; • (2) PBS buffer: PBS powder was dissolved in 2 L of ultrapure water and sterilized; • (3) Cell lysate: RIPA lysate buffer is added with protease inhibitors at a ratio of 1:1000 before use.
(1) MV-411 cells were cultured in the cell culture medium, and then well-growing cells were selected and inoculated in a 12-well plate, with 1 mL/well and 1×10^6 cells/well. The plate was incubated overnight in a 5% CO2 cell incubator at 37° C.
(2) 10 mM storage solution of each drug was prepared using dimethylsulfoxide (DMSO). The stock solution was diluted gradually with DMSO before use, and then 1 μL of the compound solution was added to the cell culture well (to ensure that the DMSO concentration in the culture system was […]), so that the final drug concentration is 100 nM, 10 nM, 3 nM, 1 nM, 0.3 nM, and 0.1 nM. Two wells were set for each concentration. The plate was gently shaken and mixed. Additionally, negative control wells (containing an equal amount of DMSO) and positive control wells were included.
(3) After 24 hours of cultivation, the cells were lysed using RIPA cell lysate, and the proteins were extracted. The protein concentration was measured using a BCA assay kit. 5× concentrated protein buffer was loaded, heated at 100° C. for 5 min, and then the sample was stored at −20° C.
(4) For each well, 30 μg of protein was loaded to polyacrylamide gel for electrophoresis.
(5) The protein was transferred from polyacrylamide gel to PVDF membrane, and sealed at room temperature with 5% skimmed milk for 1 h, which was then incubated with the primary antibodies (Anti-SHP2 rabbit mAb and Anti-GAPDH rabbit mAb) at 4° C. overnight. The membrane was washed three times with TBST solution, 10 minutes for each time. After that, the membrane was incubated with the secondary antibodies (horseradish peroxidase labeled goat anti-rabbit IgG) at room temperature for 2 h, and then washed three times with TBST solution, 10 minutes for each time, followed by exposure.
(6) The images were analyzed with Image J grayscale, and the degradation ratio of protein bands in the test group was calculated, based on the negative control group (DMSO) (100%).
(7) Using the Dose-response-inhibition equation in the data processing software GraphPad Prism 8, the DC50 value was obtained (which represents the drug concentration corresponding to 50% degradation of the target protein).
Finally, ECL detection solution was added for color development, and photos were taken with an automatic chemiluminescence instrument, so as to collect images and analyze them.

Row | SMILES | DC50 [nM]
1 | CC1(N)CCN(c2cnc(Sc3cccc(NC(=O)COCCOCCOCCOCC(=O)Nc4ccc5c(c4)C(=O)N(C4CCC(=O)NC4=O)C5)c3)cn2)CC1 (stereo not drawn) [Compound 4] | 100 to 1000
2 | CC1(CN)CCN(c2cnc(Sc3cccc(NC(=O)CCC(=O)N4CCN(CCCCCCCCC(=O)Nc5ccc6c(c5)C(=O)N(C5CCC(=O)NC5=O)C6)CC4)c3Cl)cn2)CC1 (stereo not drawn) [Compound 16] | < 100
3 | N[C@H]1CCN(c2cnc(Sc3cccc(NC(=O)CCCCCCN4CC5(CCN(c6ccc(C(=O)NCc7ccc8c(c7)CN(C7CCC(=O)NC7=O)C8=O)nn6)C5)C4)c3)cn2)C[C@@H]1O (stereo partly drawn) [Compound 197] | > 1000
4 | CN(Cc1ccc2c(c1)CN(C1CCC(=O)NC1=O)C2=O)C(=O)c1ccc(N2CCC3(CN(CCCCCCC(=O)Nc4cccc(Sc5cnc(N6CCC(N)(CO)CC6)cn5)c4)C3)C2)nn1 (stereo not drawn) [Compound 169] | < 100
5 | CC1(N)CCN(c2cnc(Sc3cccc(NC(=O)CCN4CC5(CCN(Cc6ccc(COc7cccc8c7CN(C7CCC(=O)NC7=O)C8=O)cc6)C5)C4)c3)cn2)CC1 (stereo not drawn) [Compound 69] | > 1000
6 | CC1(N)CCN(c2cnc(Sc3cccc(NC(=O)COCCOCCOCCOCC(=O)NCc4ccc5c(c4)CN(C4CCC(=O)NC4=O)C5=O)c3)cn2)CC1 (stereo not drawn) [Compound 3] | 100 to 1000
7 | CC1(N)CCN(c2cnc(Sc3cccc(NC(=O)COCCOCCN4CCN(c5ncc(C(=O)NCc6ccc7c(c6)CN(C6CCC(=O)NC6=O)C7=O)cn5)CC4)c3)cn2)CC1 (stereo not drawn) [Compound 67] | > 1000
8 | C[C@@H]1OCC2(CCN(c3cnc(Sc4cccc(NC(=O)CCCCN5CC6(CCN(c7ccc(C(=O)NCc8ccc9c(c8)CN(C8CCC(=O)NC8=O)C9=O)nn7)C6)C5)c4)cn3)CC2)[C@@H]1N (stereo partly drawn) [Compound 109] | < 100
9 | CC1(N)CCN(c2cnc(Sc3cccc(NC(=O)CCCCCCCCCCC(=O)NCc4ccc5c(c4)CN(C4CCC(=O)NC4=O)C5=O)c3)cn2)CC1 (stereo not drawn) [Compound 40] | < 100
10 | CC1(N)CCN(c2cnc(Sc3cccc(NC(=O)COCCOCCOCCOCC(=O)Nc4ccc5c(c4)CN(C4CCC(=O)NC4=O)C5=O)c3)cn2)CC1 (stereo not drawn) [Compound 18] | > 1000
11 | CC1(N)CCN(c2cnc(Sc3cccc(NC(=O)[C@H]4CCC[C@@H]4C(=O)N4CCN(CCCCCCCCC(=O)Nc5ccc6c(c5)C(=O)N(C5CCC(=O)NC5=O)C6)CC4)c3)cn2)CC1 (stereo partly drawn) [Compound 24] | > 1000
12 | CC1(N)CCN(c2cnc(Sc3cccc(NC(=O)CCCCCCC(=O)N4CC5(CCN(c6ccc(C(=O)NCc7ccc8c(c7)CN(C7CCC(=O)NC7=O)C8=O)nn6)C5)C4)c3)cn2)CC1 (stereo not drawn) [Compound 134] | 100 to 1000
13 | Cc1ncsc1-c1ccc([C@H](C)NC(=O)[C@@H]2C[C@@H](O)CN2C(=O)[C@@H](NC(=O)CCCCCCCCN2CCN(C(=O)/C=C/C(=O)Nc3cccc(Sc4cnc(N5CCC(C)(N)CC5)cn4)c3)CC2)C(C)(C)C)cc1 [Compound 54] | < 100
14 | CC1(N)CCN(c2cnc(Sc3cccc(NC(=O)CCCCCCCOC4CCN(c5ccc(C(=O)NCc6ccc7c(c6)CN(C6CCC(=O)NC6=O)C7=O)nn5)CC4(F)F)c3)cn2)CC1 (stereo not drawn) [Compound 153] | < 100
15 | Cc1ncsc1-c1ccc([C@H](C)NC(=O)[C@@H]2C[C@@H](O)CN2C(=O)[C@@H](NC(=O)c2ccc(N3CC4CCC(C3)N4CCCCCCCCC(=O)Nc3cccc(Sc4cnc(N5CCC(C)(N)CC5)cn4)c3)nn2)C(C)(C)C)cc1 [Compound 118] | 100 to 1000
16 | CC(C)(C)OC(=O)NC1CN(c2cnc(Sc3cccc(NC(=O)CCCCCCN4CC5(CCN(c6ccc(C(=O)NCc7ccc8c(c7)CN(C7CCC(=O)NC7=O)C8=O)nn6)C5)C4)c3)cn2)CC1O (stereo not drawn) [Compound 205] | > 1000
17 | Cc1ncsc1-c1ccc([C@H](C)NC(=O)[C@@H]2C[C@@H](O)CN2C(=O)[C@@H](NC(=O)c2cnc(N3CCN(CCCCCCCCC(=O)Nc4cccc(Sc5cnc(N6CCC(C)(N)CC6)cn5)c4)CC3)nc2)C(C)(C)C)cc1 [Compound 47] | < 100
18 | Cc1ncsc1-c1ccc([C@H](C)NC(=O)[C@@H]2C[C@@H](O)CN2C(=O)[C@@H](NC(=O)c2cnc(N3CC[C@@H](OCCCCCCCC(=O)Nc4cccc(Sc5cnc(N6CCC(C)(N)CC6)cn5)c4)C3)nc2)C(C)(C)C)cc1 [Compound 103] | < 100
19 | Cc1ncsc1-c1ccc([C@H](C)NC(=O)[C@@H]2C[C@@H](O)CN2C(=O)[C@@H](NC(=O)c2cnc(N3CCN(CCCCCCCC(=O)Nc4cccc(Sc5cnc(N6CCC(C)(N)CC6)cn5)c4)CC3)nc2)C(C)(C)C)cc1 [Compound 73] | < 100
20 | NC1CCN(c2cnc(Sc3cccc(NC(=O)CCCCCCCCN4C5CCC4CN(c4ccc(C(=O)NCc6ccc7c(c6)CN(C6CCC(=O)NC6=O)C7=O)nn4)C5)c3)cn2)CC1F (stereo not drawn) [Compound 143] | < 100
21 | CC1(N)CCN(c2cnc(Sc3cccc(NC(=O)CCCCCCCCN4C5CCC4CN(c4ccc(C(=O)N6CCN(c7ccc8c(c7)C(=O)N(C7CCC(=O)NC7=O)C8=O)CC6)nn4)C5)c3)cn2)CC1 (stereo not drawn) [Compound 148] | < 100
22 | CC1(N)CCN(c2cnc(Sc3cccc(NC(=O)CCCCCCOC4CN(c5ncc(C(=O)NCc6ccc7c(c6)CN(C6CCC(=O)NC6=O)C7=O)cn5)C4)c3)cn2)CC1 (stereo not drawn) [Compound 87] | < 100
23 | CC1(N)CCN(c2cnc(Sc3cccc(NC(=O)CCCCCCCN4CC5(CC(n6cc(C(=O)NCc7ccc8c(c7)CN(C7CCC(=O)NC7=O)C8=O)cn6)C5)C4)c3)cn2)CC1 (stereo not drawn) [Compound 128] | < 100
24 | CC1(N)CCN(c2cnc(Sc3cccc(NC(=O)CCCCCCC(=O)N4CC5(CN(C(=O)/C=C/C(=O)NCc6ccc7c(c6)CN(C6CCC(=O)NC6=O)C7=O)C5)C4)c3)cn2)CC1 (stereo not drawn) [Compound 125] | > 1000
25 | CC1(N)CCN(c2cnc(Sc3cccc(NC(=O)CCCCC(=O)Nc4cccc5c4CN(C4CCC(=O)NC4=O)C5=O)c3)cn2)CC1 (stereo not drawn) [Compound 1] | > 1000
26 | CC1(N)CCN(c2cnc(Sc3cccc(NC(=O)CCCCCCCCCCCCC(=O)NCc4ccc5c(c4)CN(C4CCC(=O)NC4=O)C5=O)c3)cn2)CC1 (stereo not drawn) [Compound 41] | > 1000
27 | CC1(N)CCN(c2cnc(Sc3cccc(NC(=O)CCCCCCCN4CC5(C4)CN(c4ccc(C(=O)NCc6ccc7c(c6)CN(C6CCC(=O)NC6=O)C7=O)nn4)C5)c3)cn2)CC1 (stereo not drawn) [Compound 81] | < 100
28 | CN(Cc1ccc2c(c1)CN(C1CCC(=O)NC1=O)C2=O)C(=O)c1cnc(N2CCC3(CN(CCCCCCC(=O)Nc4cccc(Sc5cnc(N6CCC(C)(N)CC6)cn5)c4)C3)C2)c(C(F)(F)F)c1 (stereo not drawn) [Compound 171] | < 100
29 | CC1(N)CCN(c2cnc(Sc3cccc(NC(=O)CCCCCCCCN4C5CCC4CN(c4ccc(CN6CCN(c7ccc8c(c7)C(=O)N(C7CCC(=O)NC7=O)C8=O)CC6)nn4)C5)c3)cn2)CC1 (stereo not drawn) [Compound 149] | < 100
30 | CC1(N)CCN(c2cnc(Sc3cccc(NC(=O)CCCCCCCN4CCN(c5ncc(C(=O)NCc6ccc7c(c6)CN(C6CCC(=O)NC6=O)C7=O)cn5)CC4)c3)cn2)CC1 (stereo not drawn) [Compound 72] | < 100
